{"source": "patent EP1859811B1", "about": "“Use of conjugates of amatoxins or phallotoxins with macromolecules for tumor and inflammation therapy” (Faulstich, Heinz, Dr., priority 2006, dated 2007)", "key": {"Jurkat": {"test_system": "Jurkat", "assay": "inhibition of proliferation by [3H]thymidine incorporation, Jurkat", "assay_type": "cell-based", "conditions": "Jurkat cells (CD3); Fig.3", "method": "Monoclonal antibodies were conjugated with ß-amanitin-N-hydoxysuccinimide ester by incubating the antibody in PBS (2mg/mL) with 10-30 equivalents of the activated ß-amanitin derivative at 4°C under gentle shaking. After reaction for 16h the protein derivative was separated from unreacted amanitin by gelfiltration chromatography on Sephadex G25 using PBS as solvent. The combined protein fractions were concentrated to a protein concentration of ca 2 mg/mL and a toxin concentration of ca. 5 x 10^-5M. The ratio toxin : mAB was in the range of 5-15 : 1.\nThree different cell lines, MCF-7, Jurkat, and Raji, exposing the specific receptors EpCAM, CD3, and CD71, respectively, were tested for the inhibition of proliferation by such ß-amanitin-monoclonal antibody conjugates, as followed by [^3H]thymidine incorporation. […] In all cases was amanitin conjugated to a specific antibody distinctly more toxic to the corresponding cell line than free amanitin, or amanitin conjugated to unspecific antibodies."}, "Jurkat cells": {"test_system": "Jurkat cells", "assay": "apoptosis in cultures of Jurkat cells incubated with toxin", "assay_type": "cell-based", "conditions": "own unpublished results", "excerpt": "Amatoxins (α-amanitin, β-amanitin, amanin) are cyclic peptides composed of 8 amino acids. They can be isolated from Amanita phalloides mushrooms or prepared from the building blocks by synthesis. Amatoxins inhibit specifically the DNA-dependent RNA polymerase II of mammalian cells, and by this transcription and protein biosynthesis of the cells affected. Inhibition of transcription in a cell causes stop of growth and proliferation. Though not covalently bound, the complex between amanitin and RNA-polymerase II is very tight (KD = 3nM). Dissociation of amanitin from the enzyme is a very slow process what makes recovery of an affected cell unlikely.\nPhallotoxins (phalloidin, phallacidin, aminophalloidin) are cyclic peptides composed of 7 aminoacids. They bind specifically to the cytoskeletal protein actin in its polymeric form (microfilaments). By this, they prevent depolymerization of the microfilaments and disturb the proper function of the actin cytoskeleton. The actin cytoskeleton is a dense meshwork of microfilaments undergoing, under the control of actin-associated proteins, rapid cycles of assembly and disassembly essential for dynamic processes such as cell division and migration. Likewise, invasion by metastatic cells is thought to be dependent on actin. […]"}, "actin": {"test_system": "actin", "assay": "binding to actin"}, "[1]": {"molecular_target": "DNA-dependent RNA polymerase II of mammalian cells (Homo sapiens, UniProt P24928+P30876)", "conditions": "complex between amanitin and RNA-polymerase II; cited from earlier work"}}}
{"substance": "OKT3", "values": [{"measurement": "times more inhibitory for the proliferation than the amanitin conjugate of an unspecific monoclonal antibody (ALH-419)", "setting": "Jurkat", "value": 330, "unit": "times"}]}
{"substance": "α-amanitin", "values": [{"measurement": "programmed cell death (apoptosis)", "setting": "Jurkat cells", "value": "undergoes programmed cell death (apoptosis)"}]}
{"substance": "phalloidin oleate", "values": [{"measurement": "programmed cell death (apoptosis)", "setting": "Jurkat cells", "value": "caused apoptosis"}]}
{"substance": "thiopropionyl-aminophalloidin", "values": [{"measurement": "actin binding compared with phalloidin", "setting": "actin", "value": "binds actin as tightly as phalloidin itself"}]}
{"substance": "amanitin", "values": [{"measurement": "Kd", "setting": "[1]", "value": 3, "unit": "nM"}]}
